Assay results from ChEMBL document CHEMBL5120897, “Anti-HIV Tigliane-Type Diterpenoids from the Aerial Parts of Wikstroemia lichiangensis” (J Nat Prod, 2022).

Experiments:
MT4 = test: Cytotoxicity against human MT4 cells assessed as reduction in cell viability by CellTiter-Glo luminescent cell viability assay; format: functional
[1] = system: Human immunodeficiency virus 1; test: Anti-HIV activity against HIV-1 NL4-3 Nanoluc-sec virus infected in human MT4 cells assessed as luciferase activity and measured 3 days post-infection by Nano-Glo luciferase assay; format: functional, organism-based; conditions: Human immunodeficiency virus 1, NL4-3, MT4, 72 h

Structure (SMILES) | CC50 (MT4) [µM] | IC50 [1] [nM]
C=C(C)[C@]12C[C@@H](COC(=O)c3ccccc3)[C@@]34OC5(O[C@@H]1[C@@H]3[C@@H]1O[C@]1(CO)[C@@H](O)[C@@]1(O)[C@H]4[C@H]([C@H](C)[C@@H]1OC(=O)c1ccccc1)[C@H](C)CCCCCC[C@H]5O)O2 | > 7 | 0.15
CCCC/C=C/C=C/CC(=O)O[C@@]12[C@H](OC(=O)c3ccccc3)[C@@H](C)[C@@]3(O)[C@@H](C=C(CO)C[C@]4(O)C(=O)C(C)=C[C@@H]34)[C@@H]1C2(C)C | > 7 | 3
CCCCCC/C=C/CC(=O)O[C@@]12[C@H](OC(=O)c3ccccc3)[C@@H](C)[C@@]3(O)[C@@H](C=C(CO)C[C@]4(O)C(=O)C(C)=C[C@@H]34)[C@@H]1C2(C)C | > 7 | 1.1
CCCCCCCCCC(=O)O[C@@]12[C@H](OC(=O)c3ccccc3)[C@@H](C)[C@]3(O)[C@@H]4C=C(C)C(=O)[C@@]4(O)[C@H](O)C(CO)=C[C@H]3[C@@H]1C2(C)C | > 7 | 1.5
CCCC/C=C/C=C/CC(=O)O[C@@]12[C@H](OC(=O)c3ccccc3)[C@@H](C)[C@]3(O)[C@@H]4C=C(C)C(=O)[C@@]4(O)[C@H](O)C(CO)=C[C@H]3[C@@H]1C2(C)C | > 7 | 65.4
CCCCCC/C=C/CC(=O)O[C@@]12[C@H](OC(=O)c3ccccc3)[C@@H](C)[C@]3(O)[C@@H]4C=C(C)C(=O)[C@@]4(O)[C@H](O)C(CO)=C[C@H]3[C@@H]1C2(C)C | > 7 | 1.5
